Laboratory results published in PubChem BioAssay AID1224920 (Broad Institute, 2016).
The source made the active and inactive calls.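 How the source made its calls: active means IC50 no higher than ten times the top tested dose; inconclusive means flat fit with 30 to 70% inhibition, or poor fit; inactive means IC50 above ten times the top dose.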

experiment: growth modulation of Clostridium difficile isolate – OD600, 9-point, retest, dose response (AID 1224920); conditions: Clostridium difficile clinical isolate growth, OD600, 24 h; at 30 µM (top of the series);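 further: plate controls were DMSO for no effect and levofloxacin control for full effect; inhibitors lower culture turbidity so OD600 falls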

Row | Structure (SMILES) | activity change, negative = inhibition
1 | COc1ccc(NC(=O)N2CCCCN3[C@@H](CO)[C@@H](c4ccc(-c5ccccc5C)cc4)[C@@H]3C2)cc1 | 48% (inactive)
2 | Cc1cccc(-c2ccc([C@@H]3[C@@H](CO)N4CCCCN(CCC(F)(F)F)C[C@@H]34)cc2)c1 | 25% (inactive)
3 | CCC(=O)N1CC(=O)N2[C@H](CO)[C@@H](c3ccc(C#CC4CCCCC4)cc3)[C@@H]2C1 | -9.02% (inactive)

same assay, conditions: Clostridium difficile clinical isolate growth, OD600, 24 h; at 60 µM (top of the series)

Row | Structure (SMILES) | activity change, negative = inhibition
4 | Cc1ccccc1-c1ccc(C2[C@@H]3CN(C(=O)C4CCCC4)C[C@H]2N3)cc1 (stereo partly drawn) | 34.2% (inactive)
5 | C/C=C/c1ccc(C2[C@@H]3CN(Cc4cccc(OC)c4)C[C@H]2N3)cc1 (stereo partly drawn) | 20.9% (inactive)
6 | OC[C@H]1[C@H](c2ccc(-c3ccccc3)cc2)[C@@H]2CN(CCC(F)(F)F)CCCCN12 | 31.7% (inactive)
7 | COc1ccc(NC(=O)N2[C@@H]3CNC[C@H]2C3c2ccc(-c3ccc(F)cc3)cc2)cc1 (stereo partly drawn) | 39.8% (inactive)
8 | CCCNC(=O)N1CC[C@H]2[C@@H]1c1cc(C#Cc3ccccc3)ccc1N(C)[C@H]2CO | 49.3% (inactive)
9 | COc1cccc(-c2ccc(C3[C@@H]4CN(C(=O)C5CCCCC5)C[C@H]3N4)cc2)c1 (stereo partly drawn) | 34.7% (inactive)
10 | O=C(Nc1ccc(F)cc1)N1CCCCN2[C@H](CO)[C@@H](c3ccc(-c4ccccc4F)cc3)[C@@H]2C1 | 53.6% (inactive)
11 | O=C(C1CCCCC1)N1CC(=O)N2[C@@H](CO)[C@H](c3ccc(C#CCc4ccccc4)cc3)[C@@H]2C1 | 21.9% (inactive)
12 | C/C=C/c1ccc(C2[C@@H]3CN(S(=O)(=O)c4ccc(F)cc4)C[C@H]2N3)cc1 (stereo partly drawn) | 42.1% (inactive)
13 | COc1ccc(NC(=O)N2C[C@@H]3N[C@H](C2)C3c2ccc(-c3cccc(OC)c3)cc2)cc1 (stereo partly drawn) | 28.8% (inactive)
14 | COc1ccccc1-c1ccc2c(c1)[C@@H]1[C@@H](CCN1C(=O)C1CCOCC1)[C@@H](CO)N2 | 39.1% (inactive)
15 | O=C(Nc1ccc(F)cc1)N1[C@@H]2CNC[C@H]1C2c1ccc(-c2ccc(F)cc2)cc1 (stereo partly drawn) | 14.2% (inactive)
16 | N#Cc1cccc(-c2ccc(C3[C@@H]4CN(S(=O)(=O)Cc5ccccc5)C[C@H]3N4)cc2)c1 (stereo partly drawn) | 29.4% (inactive)
17 | Cc1ccccc1S(=O)(=O)N1CC[C@H]2[C@H](CO)Nc3ccc(-c4ccc(F)cc4)cc3[C@H]21 | 13.1% (inactive)
18 | Cc1cccc(-c2ccc(C3[C@@H]4CN(C(=O)C5CCC5)C[C@H]3N4)cc2)c1 (stereo partly drawn) | 39.3% (inactive)
19 | O=C(NC[C@H]1N[C@H](CO)[C@@H]1c1ccc(C2=CCCCC2)cc1)C1CCCC1 | 38.1% (inactive)
20 | O=C(NC[C@H]1N[C@H](CO)[C@@H]1c1ccc(C2=CCCC2)cc1)C1CCCCC1 | 36.2% (inactive)
21 | O=C(Nc1ccccc1F)N1C[C@@H]2N[C@H](C1)C2c1ccc(-c2cccc(F)c2)cc1 (stereo partly drawn) | 33.4% (inactive)

same assay, conditions: Clostridium difficile clinical isolate growth, OD600, 24 h; at 68 µM (top of the series)

Row | Structure (SMILES) | activity change, negative = inhibition
22 | O=C(c1ccc2c(c1)OCO2)N1C[C@@H]2N[C@H](C1)C2c1ccc(-c2ccccc2F)cc1 (stereo partly drawn) | 31.1% (inactive)
23 | C/C=C/c1ccc(C2[C@@H]3CN(C(=O)Nc4ccc(F)cc4)C[C@H]2N3)cc1 (stereo partly drawn) | 49.5% (inactive)
24 | COc1ccccc1-c1ccc(C2[C@@H]3CN(Cc4nccs4)C[C@H]2N3)cc1 (stereo partly drawn) | 37.9% (inactive)
25 | N#Cc1cccc(-c2ccc(C3[C@H]4CNC[C@@H]3N4C(=O)Nc3ccc(F)cc3)cc2)c1 (stereo partly drawn) | 21.6% (inactive)

same assay, conditions: Clostridium difficile clinical isolate growth, OD600, 24 h; at 120 µM (top of the series)

Row | Structure (SMILES) | activity change, negative = inhibition
26 | C/C=C/c1ccc([C@@H]2[C@@H](CO)N(C(=O)CC)[C@@H]2CNC(=O)CC)cc1 | -6.09% (inactive)
27 | C/C=C/c1ccc([C@@H]2[C@H](CO)N(C(=O)CC)[C@H]2CNC(=O)CC)cc1 | -7.3% (inactive)
28 | O=C(C[C@@H]1CC[C@@H]2[C@H](COC[C@@H](O)CN2S(=O)(=O)c2ccccc2)O1)NCc1ccc(-c2ccccc2)cc1 | 43.8% (inactive)
29 | CC(=O)N(C)C[C@@H]1[C@@H](c2ccc(-c3ccccc3F)cc2)[C@H](CO)N1C(C)=O | -14.3% (inactive)
30 | N#C[C@H]1[C@@H](c2ccccc2-c2ccccc2)[C@H](CO)N1C(=O)Cc1ccccc1 | 32.6% (inactive)
31 | O=S(=O)(c1ccccc1)N1CCCCN2[C@H](CO)[C@H](c3ccc(C#Cc4ccccc4)cc3)[C@H]2C1 | 27.6% (inactive)
32 | O=C(Nc1ccc(F)cc1)N1CCCCN2[C@H](CO)[C@@H](c3ccc(-c4cccc(F)c4)cc3)[C@@H]2C1 | 48.5% (inactive)
33 | COc1ccc2c3c(n(C)c2c1)[C@@H](CO)N(C(=O)c1ccncc1)CC31CN(C)C1 | 3.53% (inactive)
34 | N#Cc1cccc(-c2ccc(C3[C@@H]4CN(Cc5cocn5)C[C@H]3N4)cc2)c1 (stereo partly drawn) | 39.4% (inactive)
35 | N#C[C@@H]1[C@@H](c2ccccc2-c2cccc(F)c2)[C@H](CO)N1C(=O)NC1CCCC1 | 10.6% (inactive)
36 | CN(C)C(=O)C[C@H]1C=C[C@H](NC(=O)C2CCOCC2)[C@H](CO)O1 | -14.4% (inactive)
37 | CC(=O)N(C)C[C@H]1[C@H](c2ccc(-c3ccccc3F)cc2)[C@@H](CO)N1C(C)=O | -11.8% (inactive)
38 | CCCNC(=O)N1[C@H](C#N)[C@@H](c2ccccc2-c2ccc(C)cc2)[C@@H]1CO | 17% (inactive)
39 | COc1ccc2c3c(n(C)c2c1)[C@H](CO)N(C(=O)c1ccncc1)CC31CN(C)C1 | 3.29% (inactive)
40 | CN1c2ccc(Br)cc2[C@@H]2[C@@H](CCN2C(=O)Nc2ccc(F)cc2)[C@H]1CO | 127% (inactive)
41 | CC(=O)N(C)C[C@H]1[C@H](c2ccc(-c3ccccc3F)cc2)[C@H](CO)N1C(C)=O | -3.85% (inactive)
42 | Cc1ccccc1-c1ccc([C@@H]2[C@@H](CO)N3CCCCN(S(=O)(=O)c4ccc(F)cc4)C[C@H]23)cc1 | -1.33% (inactive)

Row | Structure (SMILES) | activity change, negative = inhibition
43 | Cc1ccccc1S(=O)(=O)N1CC[C@@H]2[C@@H](CO)Nc3ccc(-c4ccc(F)cc4)cc3[C@@H]21 | 46.1% (inactive)
44 | O=C(Nc1cccc(F)c1)N1CCCCN2[C@H](CO)[C@@H](c3ccc(-c4ccccc4F)cc3)[C@@H]2C1 | 39.6% (inactive)
45 | C/C=C/c1ccc([C@@H]2[C@@H](CO)N(Cc3ccccn3)[C@H]2CNC(C)=O)cc1 | -14.5% (inactive)
46 | CC(=O)NC[C@@H]1[C@H](c2ccc(-c3cccc(F)c3)cc2)[C@H](CO)N1C(C)=O | -6.3% (inactive)
47 | O=C(Nc1ccccc1F)N1C[C@@H]2N[C@H](C1)C2c1ccc(-c2ccccc2)cc1 (stereo partly drawn) | 36.7% (inactive)
48 | CN(C)C(=O)C[C@@H]1CC[C@@H]2[C@@H](COc3ccc(NC(=O)C4CCC4)cc3C(=O)N2C)O1 | 0.255% (inactive)
49 | Cc1ccc(S(=O)(=O)Nc2cccc3c2O[C@@H](CN(C)S(=O)(=O)c2ccccc2)[C@H](C)CN([C@H](C)CO)C3=O)cc1 | -24.7% (inactive)
50 | CC(=O)N1[C@@H](CO)[C@@H](c2ccccc2)[C@@H]1CN(C)C(=O)CN1CCOCC1 | -9.07% (inactive)
51 | CC(=O)N1[C@H](CO)[C@@H](c2ccccc2)[C@@H]1CN(C)C(=O)CN1CCOCC1 | -9.56% (inactive)
52 | COc1ccc(-c2ccc3c(c2)[C@H]2[C@H](CCN2C(=O)Cc2cccnc2)[C@H](CO)N3C)cc1 | 28.9% (inactive)
53 | O=S(=O)(c1ccc(F)cc1)N1CCCCN2[C@H](CO)[C@H](c3ccc(C#CC4CCCC4)cc3)[C@H]2C1 | -16.2% (inactive)
54 | N#C[C@@H]1[C@@H](c2ccccc2-c2cccc(F)c2)[C@H](CO)N1C(=O)NC1CCCCC1 | 9.02% (inactive)
55 | CC(=O)NC[C@@H]1[C@H](c2ccc(-c3cccc(F)c3)cc2)[C@@H](CO)N1C(C)=O | -11.6% (inactive)
56 | COc1ccc2c3c([nH]c2c1)[C@H](CO)N(C(=O)c1ccccc1)CC31CN(C(=O)Nc2cccc(F)c2)C1 | 39% (inactive)
57 | O=C(Nc1ccc(F)cc1)N1CCCCN2[C@H](C1)[C@@H](c1ccc(-c3cccc(F)c3)cc1)[C@@H]2CO | 43.3% (inactive)
58 | O=C(c1cccc(F)c1)N1CC[C@@H]2[C@@H](CO)Nc3ccc(C#Cc4ccc(F)cc4)cc3[C@@H]21 | 38.1% (inactive)

same assay, conditions: Clostridium difficile clinical isolate growth, OD600, 24 h; at 135 µM (top of the series)

Row | Structure (SMILES) | activity change, negative = inhibition
59 | C/C=C/c1ccc([C@H]2[C@@H](CO)N(C(=O)CC)[C@H]2CNC(=O)CC)cc1 | -4.24% (inactive)
60 | COc1ccc2c3c(n(C)c2c1)[C@H](CO)N(C(=O)Nc1ccc(F)cc1)CC31CCN(C(=O)CN2CCOCC2)CC1 | -1.31% (inactive)
61 | Cc1ccc(-c2ccc([C@@H]3[C@@H](CO)N4CCCCN(C(=O)Nc5cccc(F)c5)C[C@@H]34)cc2)cc1 | 15.8% (inactive)
62 | N#C[C@@H]1[C@@H](c2ccccc2-c2ccc(F)cc2)[C@H](CO)N1C(=O)NC1CCCC1 | 14% (inactive)
63 | CC(=O)NC[C@H]1[C@@H](c2ccc(-c3cccc(F)c3)cc2)[C@@H](CO)N1C(C)=O | -7.05% (inactive)
64 | CN1c2ccc(-c3cccc(F)c3)cc2[C@@H]2[C@@H](CCN2C(=O)Cc2ccccc2)[C@@H]1CO | 52.8% (inactive)
65 | C/C=C/c1ccc([C@H]2[C@@H](CNC(C)C)N(c3nc(CC)cs3)[C@H]2CO)cc1 | 32.5% (inactive)
66 | N#Cc1ccc(-c2ccc(C3[C@H]4CNC[C@@H]3N4C(=O)Nc3ccc(Cl)cc3)cc2)cc1 (stereo partly drawn) | 25.9% (inactive)
67 | O=C(Cc1ccccc1)N1CC[C@H]2[C@H](CO)Nc3ccc(C4=CCCCC4)cc3[C@H]21 | 25.9% (inactive)
68 | COc1ccc(NC(=O)N2CC[C@@H]3[C@H]2c2cc(Br)ccc2N(C)[C@@H]3CO)cc1 | 17.8% (inactive)
